The subject of the assay is HSP70. As to the kind of experiment: Hsp70 Activity Essay (HSP70 ELISA on lysates of MDA435 cells). It counts as cell-based. Particulars: concentration that increases HSP70 to 50% of maximum increase by N′1,N′3-dimethyl-N′1,N′3-di(phenylcarbonothioyl)malonohydrazide. The protocol: Each well was plated with MDA435 cells using DMEM 10% FBS Phenol-red free medium 2.5 k/well and incubated in a 37° C./5% CO2 incubator for a minimum of 6 hours to obtain good cell adherence.
Dilutions of each test compound were prepared in DMSO and DMEM 10% FBS Phenol-red free medium. The final concentration in each well was 1250 nM, 125 nM, 12.5 nM or 1.25 nM of test compound and 0.25% DMSO. 0.25% DMSO was used as a negative control. Lysis buffer (any lysis buffer suitable for use in the Assay Designs kit, e.g., such as that described in the kit instructions) was then added (amount used is one quarter of the volume already present in each plate) and the mixtures were then shaken for 10 minutes.
150 μL of “Can Get Signal” Immunoreaction Enhancer Solution (Solution 1 for primary antibody, TOYOBO, Catalogue No. NKB-101) were added to each of a series of ELISA plates. The ELISA plates were obtained from the HSP70 ELISA Kit (catalogue number EKS-700B) purchased from Assay Designs (Ann Arbor, Mich.). After the cells were lysed, 50 μL of lysate were taken from each well and added to an ELISA plate, resulting in a 4 fold dilution of the lysate (50 μL of lysate and 150 μL of Can Get Signal solution). The plates were covered with adhesive tape and incubated overnight at 4° C.;
In the morning, the liquid was aspirated from all wells and 400 μL of Washing Buffer made from 20× concentrate provided in the ELISA Kit and distilled water were added and then removed by aspiration. The addition of Washing Buffer and aspiration was repeated four times. After the fourth wash, the plate were inverted to a paper towel and carefully patted dry. 100 μL of HSP70 antibody provided in ELISA Kit were added to each well. Each well was covered with adhesive tape and incubated for one hour at room temperature. Washing Buffer was then added followed by removal with aspiration. The addition of Washing Buffer and aspiration was repeated four times, after which the plates were inverted and patted dry. 100 μL of HSP70 conjugate (provided in the ELISA Kit) were added to the wells. Each well was then covered with adhesive tape and incubated for one hour at room temperature. Washing Buffer was then added followed by removal with aspiration. The addition of Washing Buffer and aspiration was repeated four times, after which the plates were inverted and patted dry.
100 μL of the TMB Substrate (obtained from the ELISA Kit) were added to the wells (color development was visible in 1 minute). The wells were incubated until saturated color development (usually 5-15 minutes). Stop Solution 2 (provided in the ELISA Kit) was added in the same order TMB Substrate was added. The OD450 was then obtained using a plate reader. The EC50 for the compounds was calculated using N′^1,N′^3-dimethyl-N′^1,N′^3-di(phenylcarbonothioyl)malonohydrazide on the same plate as a control (concentration that increases HSP70 to 50% of maximum increase by N′^1,N′^3-dimethyl-N′^1,N′^3-di(phenylcarbonothioyl)malonohydrazide). The EC50 for each of the compounds tested is shown in example 1.
Background: In an ELISA, binding on a coated surface is turned into a signal by an enzyme label.

Broadly, the EC50 is the concentration at which the effect is half-maximal. Lower therefore signals higher potency in that assay. The compound `CN(NS(=O)(=O)CC(=O)NN(C)C(=S)N1CCCCC1)C(=S)c1ccccc1` [Compound 54, N′-methyl-2-(2-methyl-2-(piperidine-1-carbonothioyl)hydrazinyl)-2-oxo-N′-(phenylcarbonothioyl)ethane-sulfonohydrazide] came in with an EC50 of 108 nM. That is a sub-micromolar value.

In the case of `CN(NC(=O)CS(=O)(=O)NN(C)C(=S)c1ccsc1)C(=S)c1ccccc1` [Compound 57, N′-methyl-2-(2-methyl-2-(phenylcarbonothioyl)hydrazinyl)-2-oxo-N′-(thiophene-3-carbonothioyl)ethanesulfono-hydrazide], a half-maximal effect (EC50) was put at 77 nM.

`CN(NC(=O)CS(=O)(=O)NN(C)C(=S)c1ccccc1)C(=S)c1ccsc1` [Compound 58, N′-methyl-2-(2-methyl-2-(thiophene-3-carbonothioyl)hydrazinyl)-2-oxo-N′-(phenylcarbonothioyl)ethane-sulfonohydrazide] showed a half-maximal effective concentration (EC50) of 77 nM. This counts as double-digit nanomolar.

`CN(NC(=O)CS(=O)(=O)NN(C)C(=S)c1csc2ccccc12)C(=S)c1ccccc1` [Compound 59] showed a half-maximal effective concentration (EC50) of 129 nM. This EC50 lies about 1.7-fold higher than the previous one.

The compound `CN(NS(=O)(=O)CC(=O)NN1CCCCC1=S)C(=S)c1ccccc1` [Compound 66, 2-(2-methyl-2-(phenylcarbonothioyl)hydrazinyl-sulfonyl)-N′-(2-thioxopiperidin-1-yl)acetamide] gave a concentration giving a half-maximal response (EC50) of 48 nM.

Compound `CCN(CC)C(=S)N(C)NS(=O)(=O)CC(=O)NN(C)C(=S)c1ccccc1` [Compound 68, N,N-diethyl-1-methyl-2-(2-(2-methyl-2-(phenylcarbonothioyl)hydrazinyl)-2-oxoethylsulfonyl)hydrazine-carbothioamide] showed a 50% effective concentration (EC50) of 63 nM.

In turn, `CCN(CC)C(=S)N(C)NC(=O)CS(=O)(=O)NN(C)C(=S)c1ccccc1` [Compound 69, N,N′-diethyl-1-methyl-2-(2-(2-methyl-2-(phenylcarbonothioyl)hydrazinyl-sulfonyl)acetyl)hydrazine-carbothioamide] came in with a half-maximal effective concentration (EC50) of 85 nM.

As to `CCN(CC)C(=S)N(C)NS(=O)(=O)CC(=O)NN(C)C(=S)c1cnccn1` [Compound 70, N,N′-diethyl-1-methyl-2-(2-(2-methyl-2-(pyrazine-2-carbonothioyl)hydrazinyl)-2-oxoethylsulfonyl)hydrazine-carbothioamide], the EC50 amounted to 127 nM.

For `CN(NC(=O)CS(=O)(=O)NN(C)C(=S)C1CC1)C(=S)c1cnco1` [Compound 74, N′-(cyclopropanecarbonothioyl)-N′-methyl-2-(2-methyl-2-(oxazole-5-carbonothioyl)hydrazinyl)-2-oxoethanesulfonohydrazide], the concentration for a half-maximal effect (EC50) turned out to be 301 nM. Compared with the last compound, the EC50 is about 2.4-fold higher.

For `CCCCN(NS(=O)(=O)CC(=O)NN(C)C(=S)c1ccccc1)C(=S)c1ccccc1` [Compound 75, N′-butyl-2-(2-methyl-2-(phenylcarbonothioyl)hydrazinyl)-2-oxo-N′-(phenylcarbonothioyl) ethanesulfonohydrazide], the EC50 is 810 nM.

In turn, `CN(NS(=O)(=O)CC(=O)NN(C)C(=S)C1CC1)C(=S)c1cncs1` [Compound 76, 2-(2-(cyclopropanecarbonothioyl)-2-methylhydrazinyl)-N′-methyl-2-oxo-N′-(thiazole-5-carbonothioyl)-ethanesulfonohydrazide] registered an EC50 of 1180 nM.

The compound `CN(NS(=O)(=O)CC(=O)NN(C)C(=S)C1CC1)C(=S)c1cnco1` [Compound 77, 2-(2-(cyclopropanecarbonothioyl)-2-methylhydrazinyl)-N′-methyl-N′-(oxazole-5-carbonothioyl)-2-oxoethanesulfonohydrazide] showed an EC50 of 967 nM.

Regarding `CN(NC(=O)CS(=O)(=O)NN(C)C(=S)c1ccccc1F)C(=S)c1ccccc1` [Compound 80, N′-(2-fluorophenylcarbonothioyl)-N′-methyl-2-(2-methyl-2-(phenylcarbonothioyl)hydrazinyl)-2-oxoethanesulfonohydrazide], it took 139 nM to reach a half-maximal effect (EC50).

With `CN(NS(=O)(=O)CC(=O)NN(C)C(=S)c1ccccc1C(F)(F)F)C(=S)c1ccccc1` [Compound 81, N′-methyl-2-(2-methyl-2-(2-(trifluoromethyl)phenylcarbono-thioyl)hydrazinyl)-2-oxo-N′-(phenylcarbonothioyl)ethane-sulfonohydrazide], the half-maximal effective concentration (EC50) was found to be 354 nM.

`CN(NS(=O)(=O)CC(=O)NN(C)C(=S)c1ccccc1F)C(=S)c1ccccc1` [Compound 82, 2-(2-(2-fluorophenylcarbonothioyl)-2-methylhydrazinyl)-N′-methyl-2-oxo-N′-(phenylcarbonothioyl)ethane-sulfonohydrazide] gave an EC50 of 173 nM.

With `CN(NC(=O)CS(=O)(=O)NN(C)C(=S)C1CC1)C(=S)c1cccc(C(F)(F)F)n1` [Compound 84, N′-(cyclopropanecarbonothioyl)-N′-methyl-2-(2-methyl-2-(6-(trifluoromethyl)pyridine-2-carbonothioyl)hydrazinyl)-2-oxoethanesulfonohydrazide], the EC50 was found to be 144 nM.

`COCC(=S)N(C)NC(=O)CS(=O)(=O)NN(C)C(=S)c1ccccc1` [Compound 85, 2-(2-(2-methoxyethanethioyl)-2-methylhydrazinyl)-N′-methyl-2-oxo-N′-(phenylcarbonothioyl)ethane-sulfonohydrazide] yielded a concentration giving a half-maximal response (EC50) of 60 nM.

In turn, `CC(=S)N(C)NC(=O)CS(=O)(=O)NN(C)C(=S)c1ccccc1` [Compound 86, 2-(2-ethanethioyl-2-methylhydrazinyl)-N′-methyl-2-oxo-N′-(phenylcarbonothioyl)ethane-sulfonohydrazide] gave an EC50 of 21 nM.

On to `CN(NC(=O)C(=CN)S(=O)(=O)NN(C)C(=S)C1CC1)C(=S)C1CC1` [Compound 87, 1-amino-N′-(cyclopropanecarbonothioyl)-3-(2-(cyclopropanecarbonothioyl)-2-methyl-hydrazinyl)-N′-methyl-3-oxoprop-1-ene-2-sulfonohydrazide], for which the half-maximal effective concentration (EC50) was 111 nM.

As for `CN(C)C=C(C(=O)NN(C)C(=S)C1CC1)S(=O)(=O)NN(C)C(=S)C1CC1` [Compound 88, N′-(cyclopropanecarbonothioyl)-3-(2-(cyclopropanecarbonothioyl)-2-methylhydrazinyl)-1-(dimethylamino)-N′-methyl-3-oxoprop-1-ene-2-sulfonohydrazide], the EC50 turned out to be 209 nM.

`CNC=C(C(=O)NN(C)C(=S)C1CC1)S(=O)(=O)NN(C)C(=S)C1CC1` [Compound 89, N′-(cyclopropanecarbonothioyl)-3-(2-(cyclopropanecarbonothioyl)-2-methylhydrazinyl)-N′-methyl-1-(methylamino)-3-oxoprop-1-ene-2-sulfonohydrazide] registered a half-maximal effective concentration (EC50) of 201 nM.

In turn, `CN(NC(=O)C(=CNC1CC1)S(=O)(=O)NN(C)C(=S)C1CC1)C(=S)C1CC1` [Compound 90, N′-(cyclopropanecarbonothioyl)-3-(2-(cyclopropanecarbonothioyl)-2-methylhydrazinyl)-1-(cyclopropylamino)-N′-methyl-3-oxoprop-1-ene-2-sulfonohydrazide] came in with a 50% effective concentration (EC50) of 227 nM.

Regarding `CC(C)NC=C(C(=O)NN(C)C(=S)C1CC1)S(=O)(=O)NN(C)C(=S)C1CC1` [Compound 91, N′-(cyclopropanecarbonothioyl)-3-(2-(cyclopropanecarbonothioyl)-2-methylhydrazinyl)-1-(isopropylamino)-N′-methyl-3-oxoprop-1-ene-2-sulfonohydrazide], the EC50 was 229 nM.

For the origin of these results see patent publication US8680100B2, “Sulfonylhydrazide compounds for treating proliferative disorders” (Synta Pharmaceuticals Corp., priority 2008, dated 2014).
